Drawing on patent US9434725B2, “5-azaindazole compounds and methods of use” (priority 2012, dated 2016), this text covers Ki for 29 compounds.

One assay concerns the target PIM2 (Homo sapiens (Human), UniProt Q9P1W9). As to the kind of experiment: Pim kinase binding activity, Caliper LC3000 microfluidic peptide phosphorylation assay, PIM2. The assay is classed as biochemical. The following applies: 10 μM ATP, 90 min, room temperature; read-out: PIM2 LC3K (KI). Here is the method: (§1) A fluorescent-labeled Pim-specific peptide substrate, was custom synthesized by American Peptide Company (Sunnyvale, Calif.). Reaction Buffer contained 10 mM HEPES, pH 7.2, 10 mM MgCl2, 0.01% Tween 20, 2 mM DTT. Termination Buffer contained 190 mM HEPES, pH 7.2, 0.015% Brij-35, 0.2% Coating Reagent 3 (Caliper Life Sciences, Hopkinton, Mass.), 20 mM EDTA. Separation Buffer contained 100 mM HEPES, pH 7.2, 0.015% Brij-35, 0.1% Coating Reagent 3, 1:200 Coating Reagent 8 (Caliper Life Sciences, Hopkinton, Mass.), 10 mM EDTA and 5% DMSO.
(§2) PIM reactions were carried out in a final volume of 10 μL per well in a 384-well plate. […] After 90 minutes of incubation at room temperature, the phosphorylation reaction was stopped by the addition of 10 μL Termination Buffer. The product and substrate in each independent reaction were separated on a 12-sipper microfluidic chip (Caliper Life Sciences, Hopkinton, Mass.) run on a Caliper LC3000® (Caliper Life Sciences, Hopkinton, Mass.). The separation of product and substrate was optimized by choosing voltages and pressure using Caliper's Optimizer software (Hopkinton, Mass.). […] Substrate conversion was calculated from the electropherogram using HTS Well Analyzer software (Caliper Life Sciences, Hopkinton, Mass.). Ki values for the test compound were calculated.

Another assay concerns the target PIM3 (Homo sapiens (Human), UniProt Q86V86). As to the kind of experiment: Pim kinase binding activity, Caliper LC3000 microfluidic peptide phosphorylation assay, PIM3. The following applies: 10 μM ATP, 90 min, room temperature; read-out: PIM3 LC3K (KI). The assay is classed as biochemical. The protocol:
as §1, §2

What is called pKi is −log10 of the Ki, conventionally taken in molar units.

pKi: −log10 of the molar value.

Sequence of PIM2 (Q9P1W9 whole entry): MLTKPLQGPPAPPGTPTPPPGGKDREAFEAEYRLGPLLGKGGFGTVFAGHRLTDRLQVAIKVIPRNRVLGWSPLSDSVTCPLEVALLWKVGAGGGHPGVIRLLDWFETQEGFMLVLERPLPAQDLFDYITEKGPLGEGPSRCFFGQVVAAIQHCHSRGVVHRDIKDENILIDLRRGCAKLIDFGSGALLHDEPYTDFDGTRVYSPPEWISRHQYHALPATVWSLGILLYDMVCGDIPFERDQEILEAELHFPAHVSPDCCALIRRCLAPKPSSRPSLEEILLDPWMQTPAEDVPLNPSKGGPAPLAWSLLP

Turning to `CCc1cncc(-c2cc3c(cn2)cnn3-c2cccc(N3CCNC[C@H](O)C3)n2)c1` (single isomer, unassigned) [Compound 121], the results for the pKi on PIM2 and on PIM3 were 7.98 and 9.52, respectively.

In the case of `Cc1cncc(-c2cc3c(cn2)cnn3-c2cccc(N3CCCC(N)C3C)n2)n1` (single isomer, unassigned) [Compound 203, 2-methyl-1-[6-[6-(6-methylpyrazin-2-yl)pyrazolo[4,3-c]pyridin-1-yl]-2-pyridyl]piperidin-3-amine], the pKi on PIM2 is 8.32; on PIM3, 9.48.

In the case of `Cc1cncc(-c2cc3c(cn2)cnn3-c2cccc(N3CCCC(N)C3C)n2)n1` (single isomer, unassigned) [Compound 204, 2-methyl-1-[6-[6-(6-methylpyrazin-2-yl)pyrazolo[4,3-c]pyridin-1-yl]-2-pyridyl]piperidin-3-amine], the pKi at PIM2 was 9.32; on PIM3, 10.60.

Regarding `CCn1cc(-c2cc3c(cn2)cnn3-c2cccc(N3CCNCC3)n2)cn1` [Compound 101, 6-(1-ethylpyrazol-4-yl)-1-(6-piperazin-1-yl-2-pyridyl)pyrazolo[4,3-c]pyridine], the pKi was 7.84 on PIM2 and 9.17 at PIM3.

`CC(C)c1cncc(-c2cc3c(cn2)cnn3-c2cccc(N3CCCNCC3)n2)c1` [Compound 103, 1-(6-(1,4-diazepan-1-yl)pyridin-2-yl)-6-(5-isopropylpyridin-3-yl)-1H-pyrazolo[4,3-c]pyridine]: the pKi on PIM2 was 8.56; at PIM3, 10.19.

Consider `CC(C)c1cncc(-c2cc3c(cn2)cnn3-c2cccc(N3CCNCC3)n2)c1` [Compound 105, 6-(5-isopropylpyridin-3-yl)-1-(6-(piperazin-1-yl)pyridin-2-yl)-1H-pyrazolo[4,3-c]pyridine], for which the pKi was 8.15 on PIM2 and 9.74 at PIM3.

Take `CCc1cncc(-c2cc3c(cn2)cnn3-c2cccc(N3CCNCC(O)C3)n2)c1` (centres unmarked) [Compound 106, 1-(6-(6-(5-ethylpyridin-3-yl)-1H-pyrazolo[4,3-c]pyridin-1-yl)pyridin-2-yl)-1,4-diazepan-6-ol]: the pKi at PIM2 is 8.14.

Regarding `CC(C)c1cncc(-c2cc3c(cn2)cnn3-c2cccc(N3CCC[C@@H](N)C3)n2)c1` [Compound 107, (R)-1-(6-(6-(5-isopropylpyridin-3-yl)-1H-pyrazolo[4,3-c]pyridin-1-yl)pyridin-2-yl)piperidin-3-amine], the pKi was 8.02 on PIM2 and 9.69 at PIM3.

For `CC(C)c1cncc(-c2cc3c(cn2)cnn3-c2cccc(N3CCC[C@H](N)C3)n2)c1` [Compound 108, (3S)-1-[6-[6-(5-isopropyl-3-pyridyl)pyrazolo[4,3-c]pyridin-1-yl]-2-pyridyl]piperidin-3-amine], the pKi at PIM2 was 8.71; on PIM3, 10.31.

Turning to `Cc1cc(-c2cc3c(cn2)cnn3-c2cccc(N3CCCNCC3)n2)sn1` [Compound 120, 5-[1-[6-(1 4-diazepan-1-yl)-2-pyridyl]pyrazolo[4,3-c]pyridin-6-yl]-3-methyl-isothiazole], the pKi at PIM2 is 8.33; on PIM3, 9.77.

Turning to `CCn1cc(-c2cc3c(cn2)cnn3-c2cccc(N3CCCNCC3)n2)cn1` [Compound 125, 1-(6-(1,4-diazepan-1-yl)pyridin-2-yl)-6-(1-ethyl-1H-pyrazol-4-yl)-1H-pyrazolo[4,3-c]pyridine], on PIM2, the pKi was 8.37.

Take `CCc1cncc(-c2cc3c(cn2)cnn3-c2ccc(C3CC3)c(N3CCC[C@H](N)C3)n2)c1` [Compound 139, (S)-1-(3-cyclopropyl-6-(6-(5-ethylpyridin-3-yl)-1H-pyrazolo[4,3-c]pyridin-1-yl)pyridin-2-yl)piperidin-3-amine]: the values for the pKi on PIM2 and on PIM3 were 9.73 and 10.46, respectively.

Take `CCc1cncc(-c2cc3c(cn2)cnn3-c2cccc(N3CCC[C@H](N)C3)n2)n1` [Compound 156, (3S)-1-[6-[6-(6-ethylpyrazin-2-yl)pyrazolo[4,3-c]pyridin-1-yl]-2-pyridyl]piperidin-3-amine]: the pKi on PIM2 is 9.43; on PIM3, 10.85.

Take `FC(F)Cn1cc(-c2cc3c(cn2)cnn3-c2cccc(N3CCCNCC3)n2)cn1` [Compound 162, 1-(6-(1,4-Diazepan-1-yl)pyridin-2-yl)-6-(1-(2,2-difluoroethyl)-1H-pyrazol-4-yl)-1H-pyrazolo[4,3-c]pyridine]: the pKi was 8.65 at PIM2 and 9.09 on PIM3.

Turning to `Cc1cncc(-c2cc3c(cn2)cnn3-c2cccc(C3CCNCC3)n2)n1` [Compound 166, 6-(6-methylpyrazin-2-yl)-1-[6-(4-piperidyl)-2-pyridyl]pyrazolo[4,3-c]pyridine], the pKi is 8.34 on PIM2 and 9.35 on PIM3.

Regarding `Cc1cncc(-c2cc3c(cn2)cnn3-c2cccc(N3CC[C@H](N)C3)n2)n1` [Compound 167, (3S)-1-[6-[6-(6-methylpyrazin-2-yl)pyrazolo[4,3-c]pyridin-1-yl]-2-pyridyl]pyrrolidin-3-amine], the results for the pKi on PIM2 and at PIM3 were 8.64 and 9.47, respectively.

`Cc1cncc(-c2cc3c(cn2)cnn3-c2ccc(Cl)c(N3CCC[C@H](N)C3)n2)n1` [Compound 176, (S)-1-(3-chloro-6-(6-(6-methylpyrazin-2-yl)-1H-pyrazolo[4,3-c]pyridin-1-yl)pyridin-2-yl)piperidin-3-amine]: the pKi on PIM2 is 9.50; on PIM3 it was 10.33.

For `FC(F)(F)Cn1cc(-c2cc3c(cn2)cnn3-c2ccnc(N3CCCNCC3)n2)cn1` [Compound 179, 1-(2-(1,4-Diazepan-1-yl)pyrimidin-4-yl)-6-(1-(2,2,2-trifluoroethyl)-1H-pyrazol-4-yl)-1H-pyrazolo-[4,3-c]pyridine], at PIM3, the pKi is 8.75.

As for `c1cc(N2CCCNCC2)nc(-n2ncc3cnc(-c4cn[nH]c4)cc32)c1` [Compound 180, 1-(6-(1,4-Diazepan-1-yl)pyridin-2-yl)-6-(1H-pyrazol-4-yl)-1H-pyrazolo[4,3-c]pyridine], the pKi at PIM2 was 8.80; on PIM3 it was 10.07.

With `Cc1cncc(-c2cc3c(cn2)cnn3-c2cccc(N3CCNC(C)CC3)n2)n1` (centres unmarked) [Compound 184, 1-[6-(5-methyl-1 4-diazepan-1-yl)-2-pyridyl]-6-(6-methylpyrazin-2-yl)pyrazolo[4,3-c]pyridine], the pKi was 8.62 at PIM2 and 10.12 at PIM3.

`Cc1cncc(-c2cc3c(cn2)cnn3-c2cccc(N3CCCCC(N)C3)n2)n1` (centres unmarked) [Compound 187, 1-[6-[6-(6-methylpyrazin-2-yl)pyrazolo[4,3-c]pyridin-1-yl]-2-pyridyl]azepan-3-amine]: on PIM2, the pKi is 8.97.

In the case of `Cc1cncc(-c2cc3c(cn2)cnn3-c2cccc(N3CCNC[C@H]3C)n2)n1` [Compound 191, 1-[6-[(2R)-2-methylpiperazin-1-yl]-2-pyridyl]-6-(6-methylpyrazin-2-yl)pyrazolo[4,3-c]pyridine], the pKi on PIM2 is 9.18; at PIM3, 10.48.

On to `Cc1cncc(-c2cc3c(cn2)cnn3-c2cccc(N3CCCC(N)C3C)n2)n1` (centres unmarked) [Compound 195, 2-methyl-1-[6-[6-(6-methylpyrazin-2-yl)pyrazolo[4,3-c]pyridin-1-yl]-2-pyridyl]piperidin-3-amine], for which the pKi at PIM2 was 8.99; on PIM3, 10.24.

As to `Cc1cncc(-c2cc3c(cn2)cnn3-c2cccc(N3CCNC[C@@H]3C)n2)n1` [Compound 196, 1-[6-[(2S)-2-methylpiperazin-1-yl]-2-pyridyl]-6-(6-methylpyrazin-2-yl)pyrazolo[4,3-c]pyridine], the pKi at PIM2 was 9.06.

For the compound `Cc1nc(-c2cc3c(cn2)cnn3-c2cccc(N3CCCNCC3)n2)cnc1N` [Compound 208, 5-(1-(6-(1,4-diazepan-1-yl)pyridin-2-yl)-1H-pyrazolo[4,3-c]pyridin-6-yl)-3-methylpyrazin-2-amine], the pKi on PIM2 is 9.13; on PIM3, 10.85.

For the compound `Cc1cncc(-c2cc3c(cn2)cnn3-c2ccc(F)c(N3CCC[C@H](N)C3)n2)n1` [Compound 215, (S)-1-(3-fluoro-6-(6-(6-methylpyrazin-2-yl)-1H-pyrazolo[4,3-c]pyridin-1-yl)pyridin-2-yl)piperidin-3-amine], the figures for the pKi on PIM2 and at PIM3 were 9.50 and 10.96, respectively.

For `Cc1cncc(-c2cc3c(cn2)cnn3-c2ccc(C(F)F)c(N3CCC[C@H](N)C3)n2)n1` [Compound 227, (S)-1-(3-(difluoromethyl)-6-(6-(6-methylpyrazin-2-yl)-1H-pyrazolo[4,3-c]pyridin-1-yl)pyridin-2-yl)piperidin-3-amine], the pKi on PIM3 is 10.72.

For `Cc1cncc(-c2cc3c(cn2)cnn3-c2ccc(=O)n([C@H]3CCCNC3)n2)n1` [Compound 289, (S)-6-(6-(6-methylpyrazin-2-yl)-1H-pyrazolo[4,3-c]pyridin-1-yl)-2-(piperidin-3-yl)pyridazin-3(2H)-one], the pKi on PIM2 is 6.00.

On to `Cc1cncc(-c2cc3c(cn2)cnn3-c2cccc(N(C)C)n2)n1` [Compound 296, N,N-dimethyl-6-(6-(6-methylpyrazin-2-yl)-1H-pyrazolo[4,3-c]pyridin-1-yl)pyridin-2-amine], for which the pKi at PIM3 was 9.25.
